Results taken from patent publication US8008329B2 (Dong Wha Pharmaceutical Co., Ltd., priority 2008, dated 2011).
Marks after values point to notes of the source that are not given here.

System: osteoclast differentiation
Experiment: Osteoclast differentiation in co-culture of mouse bone marrow cells and ST2 cells, TRAP staining (Examples 8-9)
Assay type: cell-based
Settings: for % number of osteoclast (vs. solvent control group): 0.1 μM each, day 7; for activity at 0.1 µM: Mus musculus, Osteoclast, 168 h, Individual treatment (compounds), day 7, read-out: % number of osteoclast (vs. solvent control group)
Summary of the method: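 Readout was TRAP-positive multinucleated (≥6 nuclei) cells on day 7, reported as % of 0.1% DMSO control, mean±SD of 4 wells. Cells were mouse (male ddY) bone marrow plus ST2 co-cultures driven by 10^−8 M vitamin D3/dexamethasone. Benzamidines, alendronic acid or risedronic acid were added at 0.1 μM alone or combined, with media renewed days 3 and 5.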

[1] = Combination treatment (alendronic acid + compounds)
[2] = Combination treatment (risedronic acid + compounds)

SMILES | % number of osteoclast (vs. solvent control group) [1] | % number of osteoclast (vs. solvent control group) [2] | activity at 0.1 µM [%]
Cc1nc(-c2ccc(OCCCCCOc3ccc(C(=N)NO)cc3)cc2)c(CNCc2ccccc2)s1 [Compound 306, N-hydroxy-4-(5-{4-[5-(benzylamino-methyl)-2-methyl-thiazol-4-yl]-phenoxy}-pentyloxy)-benzamidine] | 18 ± 4.3^ab % | 16 ± 3.3^ac % | 48 ± 6.4
CC(C)NCc1sc(N(C)CCN2CCOCC2)nc1-c1ccc(OCCCCCOc2ccc(C(=N)NO)cc2)cc1 [Compound 317, N-hydroxy-4-[5-(4-{5-(isopropylamino-methyl)-2-[methyl-(2-morpholin-4-yl-ethyl)-amino]-thiazol-4-yl}-phenoxy)-pentyloxy]-benzamidine] | 18 ± 4.6^ab % | 16 ± 3.2^ac % | 45 ± 3.2
N=C(NO)c1ccc(OCCCCCOc2ccc(-c3nc(N4CCOCC4)sc3N3CCOCC3)cc2)cc1 [Compound 290, N-hydroxy-4-{5-[4-(2,5-di-morpholin-4-yl-thiazol-4-yl)-phenoxy]-pentyloxy}-benzamidine] | 23 ± 4.7^ab % | 12 ± 2.0^ac % | 52 ± 6.2
CN(CCN1CCOCC1)c1nc(-c2ccc(OCCCCCOc3ccc(C(=N)NO)cc3)cc2)c(CN2CCSCC2)s1 [Compound 314, N-hydroxy-4-[5-(4-{2-[methyl-(2-morpholin-4-yl-ethyl)-amino]-5-thiomorpholin-4-ylmethyl-thiazol-4-yl}-phenoxy)-pentyloxy]-benzamidine] | 15 ± 1.7^ab % | 9 ± 3.2^ac % | 43 ± 7
CCCCCc1nc(-c2ccc(OCCCCCOc3ccc(C(=N)NO)cc3)cc2)c(C)s1 [Compound 15, N-hydroxy-4-{5-[4-(5-methyl-2-pentyl-1,3-thiazol-4-yl)phenoxy]pentyloxy}-benzamidine] | 43 ± 11.4% | 45 ± 9.2^ac % | 69 ± 5.5
Cc1nc(-c2ccc(OCCCCCOc3ccc(C(=N)NO)cc3)cc2)c(CCNCC(C)C)s1 [Compound 235, N-hydroxy-4-(5-{4-[5-(2-isobutylamino-ethyl)-2-methyl-thiazol-4-yl]-phenoxy}-pentyloxy)-benzamidine] | 33 ± 1.8% | 25 ± 4.4^c % | 38 ± 7.6
CNC(=O)c1sc(C)nc1-c1ccc(OCCCCCOc2ccc(C(=N)NO)cc2)cc1 [Compound 282, N-hydroxy-4-{5-[4-(5-methylcarbamoyl-2-methyl-thiazol-4-yl)-phenoxy]-pentyloxy}-benzamidine] | 49 ± 9.9^ab % | 45 ± 5.2^ac % | 73 ± 7.1
Cc1nc(-c2ccc(OCCCCCOc3ccc(C(=N)NO)cc3)cc2)c(CNCCN2CCOCC2)s1 [Compound 302, N-hydroxy-4-[5-(4-{2-methyl-5-[(2-morpholin-4-yl-ethylamino)-methyl]-thiazol-4-yl}-phenoxy)-pentyloxy]-benzamidine] | 16 ± 4.5^ab % | 9 ± 2.8^ac % | 59 ± 10.6
CC(C)c1sc(N(C)C)nc1-c1ccc(OCCCCCOc2ccc(C(=N)NO)cc2)cc1 [Compound 161, N-hydroxy-4-{5-[4-(5-isopropyl-2-dimethylamino-1,3-thiazol-4-yl)phenoxy]pentyloxy}-benzamidine] | 56 ± 4.3^ab % | 47 ± 14.0^a % | 79 ± 5.1
CC(C)c1nc(-c2ccc(OCCCCCOc3ccc(C(=N)NO)cc3)cc2)c(CCN(C(=O)c2ccncc2)C2CC2)s1 [Compound 280, N-hydroxy-4-{5-[4-(5-{2-[cyclopropyl-(pyridin-4-carbonyl)-amino]-ethyl}-2-isopropyl-thiazol-4-yl)-phenoxy]-pentyloxy}-benzamidine] | 25 ± 6.4^b % | 8 ± 1.4^ac % | 40 ± 5
Cc1sc(N(C)CCO)nc1-c1ccc(OCCCCCOc2ccc(C(=N)NO)cc2)cc1 [Compound 120] | 54 ± 2.4^ab % | 55 ± 9.1^ac % | 80 ± 6.5
Cc1sc(NC(=N)N)nc1-c1ccc(OCCCCCOc2ccc(C(=N)NO)cc2)cc1 [Compound 59, N-hydroxy-4-{5-[4-(2-guanidino-5-methyl-1,3-thiazol-4-yl)phenoxy]pentyloxy}-benzamidine] | 34 ± 2.2^ab % | 33 ± 5.1^ac % | 55 ± 6.5
C=Cc1sc(N)nc1-c1ccc(OCCCCCOc2ccc(C(=N)NO)cc2)cc1 [Compound 78, N-hydroxy-4-{5-[4-(5-vinyl-2-amino-1,3-thiazol-4-yl)phenoxy]pentyloxy}-benzamidine] | 36 ± 4.2^ab % | 20 ± 1.7^a % | 67 ± 2.1
CCNc1nc(-c2ccc(OCCCCCOc3ccc(C(=N)NO)cc3)cc2)cs1 [Compound 84, N-hydroxy-4-{5-[4-(2-ethylamino-1,3-thiazol-4-yl)phenoxy]pentyloxy}-benzamidine] | 30 ± 5.1^ab % | 6 ± 4.4^ac % | 44 ± 4.3
CC(C)C(=O)N(C)c1nc(-c2ccc(OCCCCCOc3ccc(C(=N)NO)cc3)cc2)c(CCN2CCOCC2)s1 [Compound 268, N-hydroxy-4-(5-{4-[2-(isobutyryl-methyl-amino)-5-(2-morpholin-4-yl-ethyl)-thiazol-4-yl]-phenoxy}-pentyloxy)-benzamidine] | 28 ± 1.7^b % | 17 ± 3.4^ac % | 52 ± 9.1
Cc1nc(-c2ccc(OCC=CCOc3ccc(C(=N)NO)cc3)cc2)c(C(C)C)s1 [Compound 184, N-hydroxy-4-{4-[4-(5-isopropyl-2-methyl-1,3-thiazol-4-yl)-phenoxy]-but-2-enyloxy}-benzamidine] | 38 ± 3.7^ab % | 38 ± 6.9^ac % | 62 ± 4.6
CC(C)c1nc(-c2ccc(OCCCCCOc3ccc(C(=N)NO)cc3)cc2)c(CC2CCCC2)s1 [Compound 47, N-hydroxy-4-{5-[4-(5-cyclopentylmethyl-2-isopropyl-1,3-thiazol-4-yl)phenoxy]pentyloxy}-benzamidine] | 42 ± 4.6^b % | 32 ± 3.0^ac % | 57 ± 7.9
Cc1nc(-c2ccc(OCCCCCOc3ccc(C(=N)NO)cc3)cc2)c(CCN2CCOCC2)s1 [Compound 231, N-hydroxy-4-(5-{4-[2-methyl-5-(2-morpholin-4-yl-ethyl)-thiazol-4-yl]-phenoxy}-pentyloxy)-benzamidine] | 50 ± 9.8^b % | 40 ± 3.1^ac % | 82 ± 14.6
Cc1nc(-c2ccc(OCCCCCOc3ccc(C(=N)NO)cc3)cc2)c(CC2CCCC2)s1 [Compound 45, N-hydroxy-4-{5-[4-(5-cyclopentylmethyl-2-methyl-1,3-thiazol-4-yl)phenoxy]pentyloxy}-benzamidine] | 49 ± 8.1^ab % | 38 ± 11.9^ac % | 72 ± 4.6
Cc1nc(-c2ccc(OCCCCCOc3ccc(C(=N)NO)cc3)cc2)c(C2CCCC2)s1 [Compound 43, N-hydroxy-4-{5-[4-(5-cyclopentyl-2-methyl-1,3-thiazol-4-yl)phenoxy]pentyloxy}-benzamidine] | 32 ± 6.6^ab % | 40 ± 7.8^c % | 74 ± 14.6
CC(C)c1nc(-c2ccc(OCCCCCOc3ccc(C(=N)NO)cc3)cc2)c(CCNCCN2CCOCC2)s1 [Compound 243, N-hydroxy-4-[5-(4-{2-isopropyl-5-[2-(2-morpholin-4-yl-ethylamino)-ethyl]-thiazol-4-yl}-phenoxy)-pentyloxy]-benzamidine] | 24 ± 7.7^b % | 12 ± 2.3^ac % | 36 ± 4.9
Cc1nc(-c2ccc(OCCCCOc3ccc(C(=N)NO)cc3)cc2)c(C(C)C)s1 [Compound 194, N-hydroxy-4-{4-[4-(5-isopropyl-2-methyl-1,3-thiazol-4-yl)phenoxy]butoxy}-benzamidine] | 33 ± 7.1^ab % | 30 ± 7.0^ac % | 74 ± 10.1
CCN(CC)c1nc(-c2ccc(OCCCCCOc3ccc(C(=N)NO)cc3)cc2)c(CCN2CCOCC2)s1 [Compound 270, N-hydroxy-4-(5-{4-[2-diethylamino-5-(2-morpholin-4-yl-ethyl)-thiazol-4-yl]-phenoxy}-pentyloxy)-benzamidine] | 28 ± 4.5^b % | 14 ± 2.1^ac % | 45 ± 6.9
Cc1nc(-c2ccc(OCCCCCOc3ccc(C(=N)NO)cc3)cc2)c(CN2CCCCC2)s1 [Compound 296, N-hydroxy-4-{5-[4-(2-methyl-5-piperidin-1-ylmethyl-thiazol-4-yl)-phenoxy]-pentyloxy}-benzamidine] | 13 ± 2.6^ab % | 8 ± 1.7^ac % | 46 ± 3.6
CCCCNCc1sc(C)nc1-c1ccc(OCCCCCOc2ccc(C(=N)NO)cc2)cc1 [Compound 298, N-hydroxy-4-{5-[4-(5-butylaminomethyl-2-methyl-thiazol-4-yl)-phenoxy]-pentyloxy}-benzamidine] | 16 ± 3.3^ab % | 8 ± 2.9^ac % | 55 ± 6.1
